Test results reported in ChEMBL document CHEMBL2417377, “Hit-to-lead optimization and kinase selectivity of imidazo[1,2-a]quinoxalin-4-amine derived JNK1 inhibitors” (Bioorg Med Chem Lett, 2013).

Key:
[1] = biological target: T1, MAP/microtubule affinity-regulating kinase 4 (Homo sapiens) (UniProt Q96L34); experiment: Inhibition of MARK4 in human PC3 cell lysates at 10 uM using desthiobiotin-tagged ATP probe AX9989 followed by trypsinization by LC/MS analysis; settings: PC-3
T1 sequence (whole entry): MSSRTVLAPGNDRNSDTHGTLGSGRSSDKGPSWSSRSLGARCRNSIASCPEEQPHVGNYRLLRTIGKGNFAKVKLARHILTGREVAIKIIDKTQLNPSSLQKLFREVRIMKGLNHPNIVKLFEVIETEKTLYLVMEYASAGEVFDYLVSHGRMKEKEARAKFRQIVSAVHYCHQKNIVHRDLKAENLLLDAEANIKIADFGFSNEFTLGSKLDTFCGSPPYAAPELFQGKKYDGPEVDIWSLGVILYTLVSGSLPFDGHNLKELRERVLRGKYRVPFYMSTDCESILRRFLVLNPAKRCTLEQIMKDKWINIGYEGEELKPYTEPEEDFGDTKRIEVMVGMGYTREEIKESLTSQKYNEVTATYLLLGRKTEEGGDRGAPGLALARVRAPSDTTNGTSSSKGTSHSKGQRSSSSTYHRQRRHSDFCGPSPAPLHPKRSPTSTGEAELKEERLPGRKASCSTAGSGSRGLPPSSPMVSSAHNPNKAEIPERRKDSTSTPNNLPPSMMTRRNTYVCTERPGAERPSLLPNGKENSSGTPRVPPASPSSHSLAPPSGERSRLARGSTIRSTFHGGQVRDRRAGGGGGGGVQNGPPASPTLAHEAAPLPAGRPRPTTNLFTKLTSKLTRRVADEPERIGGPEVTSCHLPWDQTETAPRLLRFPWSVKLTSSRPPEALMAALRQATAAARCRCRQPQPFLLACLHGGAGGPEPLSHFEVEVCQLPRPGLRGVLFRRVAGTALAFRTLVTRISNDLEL

PC-3 = experiment: Inhibition of KHS2 in human PC3 cell lysates at 10 uM using desthiobiotin-tagged ATP probe AX9989 followed by trypsinization by LC/MS analysis; format: cell-free
[2] = biological target: Tyrosine-protein kinase Fer (Homo sapiens) (UniProt P16591); experiment: Inhibition of FER in human PC3 cell lysates at 10 uM using desthiobiotin-tagged ATP probe AX9989 followed by trypsinization by LC/MS analysis; settings: PC-3
Chain of Tyrosine-protein kinase Fer (Homo sapiens) (P16591 whole entry, looked up): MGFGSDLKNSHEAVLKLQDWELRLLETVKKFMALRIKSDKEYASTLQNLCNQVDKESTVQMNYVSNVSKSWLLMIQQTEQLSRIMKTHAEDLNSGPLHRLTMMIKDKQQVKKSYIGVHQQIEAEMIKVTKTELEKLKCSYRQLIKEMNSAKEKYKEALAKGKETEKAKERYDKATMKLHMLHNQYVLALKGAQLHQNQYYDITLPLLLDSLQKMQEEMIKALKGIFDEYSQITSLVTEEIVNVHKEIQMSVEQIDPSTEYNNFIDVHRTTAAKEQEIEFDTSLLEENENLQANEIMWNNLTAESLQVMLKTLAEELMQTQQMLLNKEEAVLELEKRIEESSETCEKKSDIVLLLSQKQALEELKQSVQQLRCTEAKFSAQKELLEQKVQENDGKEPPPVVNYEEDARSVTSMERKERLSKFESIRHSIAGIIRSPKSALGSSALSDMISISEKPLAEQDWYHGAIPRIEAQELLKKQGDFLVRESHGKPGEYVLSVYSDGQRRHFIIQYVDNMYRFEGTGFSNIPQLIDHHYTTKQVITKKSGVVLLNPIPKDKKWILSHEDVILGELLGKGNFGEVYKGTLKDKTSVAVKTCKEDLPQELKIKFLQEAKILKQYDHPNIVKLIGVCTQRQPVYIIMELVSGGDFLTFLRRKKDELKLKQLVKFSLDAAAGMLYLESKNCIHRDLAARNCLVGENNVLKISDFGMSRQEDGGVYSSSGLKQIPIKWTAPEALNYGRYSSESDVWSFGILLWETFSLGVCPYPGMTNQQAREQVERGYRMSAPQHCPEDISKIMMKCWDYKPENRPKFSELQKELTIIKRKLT

[3] = biological target: T2, Peripheral plasma membrane protein CASK (Homo sapiens) (UniProt O14936); experiment: Inhibition of CASK in human PC3 cell lysates at 10 uM using desthiobiotin-tagged ATP probe AX9989 followed by trypsinization by LC/MS analysis; settings: PC-3
T2 sequence (whole entry): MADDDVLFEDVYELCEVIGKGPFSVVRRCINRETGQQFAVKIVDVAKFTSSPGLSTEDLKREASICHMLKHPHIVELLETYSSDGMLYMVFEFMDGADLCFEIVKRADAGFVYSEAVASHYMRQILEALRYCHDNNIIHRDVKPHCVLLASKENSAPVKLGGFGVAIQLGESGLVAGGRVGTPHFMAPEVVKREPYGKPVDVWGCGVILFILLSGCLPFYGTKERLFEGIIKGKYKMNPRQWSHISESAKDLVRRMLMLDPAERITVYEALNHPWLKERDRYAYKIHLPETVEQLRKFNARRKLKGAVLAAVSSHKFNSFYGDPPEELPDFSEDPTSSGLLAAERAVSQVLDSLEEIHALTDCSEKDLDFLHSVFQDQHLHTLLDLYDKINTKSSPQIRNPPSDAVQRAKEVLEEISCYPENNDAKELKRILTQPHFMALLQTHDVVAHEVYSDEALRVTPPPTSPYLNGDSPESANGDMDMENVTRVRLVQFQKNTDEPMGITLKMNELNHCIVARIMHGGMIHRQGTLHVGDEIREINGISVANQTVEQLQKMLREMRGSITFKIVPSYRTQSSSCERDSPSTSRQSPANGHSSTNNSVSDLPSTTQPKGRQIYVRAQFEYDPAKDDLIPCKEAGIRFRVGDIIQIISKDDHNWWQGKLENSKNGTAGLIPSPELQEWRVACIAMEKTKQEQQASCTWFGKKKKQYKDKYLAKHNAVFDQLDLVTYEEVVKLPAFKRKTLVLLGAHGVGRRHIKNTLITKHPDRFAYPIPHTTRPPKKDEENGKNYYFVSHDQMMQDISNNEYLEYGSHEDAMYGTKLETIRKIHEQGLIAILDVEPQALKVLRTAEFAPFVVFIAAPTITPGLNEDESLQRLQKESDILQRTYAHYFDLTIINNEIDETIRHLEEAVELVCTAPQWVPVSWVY

[4] = biological target: eIF-2-alpha kinase GCN2 (Homo sapiens) (UniProt Q9P2K8); experiment: Inhibition of GCN2 in human PC3 cell lysates at 10 uM using desthiobiotin-tagged ATP probe AX9989 followed by trypsinization by LC/MS analysis; settings: PC-3
Chain of eIF-2-alpha kinase GCN2 (Homo sapiens) (Q9P2K8 whole entry): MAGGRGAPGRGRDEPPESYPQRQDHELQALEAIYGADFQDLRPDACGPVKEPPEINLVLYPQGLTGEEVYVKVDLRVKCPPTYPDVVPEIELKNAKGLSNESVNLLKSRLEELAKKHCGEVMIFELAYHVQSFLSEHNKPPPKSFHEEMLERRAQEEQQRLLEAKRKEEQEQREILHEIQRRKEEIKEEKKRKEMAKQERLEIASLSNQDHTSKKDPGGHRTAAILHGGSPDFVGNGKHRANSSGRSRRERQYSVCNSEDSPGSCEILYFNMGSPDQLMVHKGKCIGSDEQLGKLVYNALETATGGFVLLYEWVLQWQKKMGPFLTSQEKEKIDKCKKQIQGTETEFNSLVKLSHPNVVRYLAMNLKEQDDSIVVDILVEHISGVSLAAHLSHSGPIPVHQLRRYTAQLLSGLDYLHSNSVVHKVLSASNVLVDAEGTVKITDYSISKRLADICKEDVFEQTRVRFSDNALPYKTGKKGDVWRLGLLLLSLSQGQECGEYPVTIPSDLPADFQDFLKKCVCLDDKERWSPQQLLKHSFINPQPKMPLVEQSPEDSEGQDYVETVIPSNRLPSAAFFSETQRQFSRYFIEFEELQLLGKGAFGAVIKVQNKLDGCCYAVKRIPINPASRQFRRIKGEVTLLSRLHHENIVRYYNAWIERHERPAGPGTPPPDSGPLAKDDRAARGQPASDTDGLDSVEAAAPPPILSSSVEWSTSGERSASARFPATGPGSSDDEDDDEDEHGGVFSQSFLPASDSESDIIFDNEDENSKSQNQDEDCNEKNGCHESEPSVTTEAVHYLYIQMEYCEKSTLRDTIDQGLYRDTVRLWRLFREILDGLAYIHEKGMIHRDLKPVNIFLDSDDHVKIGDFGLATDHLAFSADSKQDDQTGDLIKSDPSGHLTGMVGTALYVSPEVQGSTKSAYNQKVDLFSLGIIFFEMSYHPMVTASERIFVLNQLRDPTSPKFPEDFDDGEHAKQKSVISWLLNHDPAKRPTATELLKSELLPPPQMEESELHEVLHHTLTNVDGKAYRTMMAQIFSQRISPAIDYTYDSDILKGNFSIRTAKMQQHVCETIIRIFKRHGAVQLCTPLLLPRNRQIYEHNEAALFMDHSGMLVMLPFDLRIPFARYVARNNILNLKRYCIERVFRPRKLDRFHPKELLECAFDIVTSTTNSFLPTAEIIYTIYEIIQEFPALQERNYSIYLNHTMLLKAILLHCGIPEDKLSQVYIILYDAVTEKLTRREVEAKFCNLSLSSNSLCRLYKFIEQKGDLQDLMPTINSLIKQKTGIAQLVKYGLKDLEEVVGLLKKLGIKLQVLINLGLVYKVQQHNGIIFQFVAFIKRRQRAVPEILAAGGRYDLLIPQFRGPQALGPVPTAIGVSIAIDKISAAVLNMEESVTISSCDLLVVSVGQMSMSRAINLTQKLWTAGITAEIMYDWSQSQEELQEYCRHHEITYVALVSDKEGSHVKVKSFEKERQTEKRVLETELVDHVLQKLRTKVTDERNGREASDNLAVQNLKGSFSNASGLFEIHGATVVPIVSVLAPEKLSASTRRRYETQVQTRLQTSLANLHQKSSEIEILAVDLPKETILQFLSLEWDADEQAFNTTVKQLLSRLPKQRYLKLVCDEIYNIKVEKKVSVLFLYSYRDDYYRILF

[5] = biological target: Serine/threonine-protein kinase WNK4 (Homo sapiens) (UniProt Q96J92); experiment: Inhibition of Wnk4 in human PC3 cell lysates at 10 uM using desthiobiotin-tagged ATP probe AX9989 followed by trypsinization by LC/MS analysis; settings: PC-3
[6] = biological target: STE20-like serine/threonine-protein kinase (Homo sapiens) (UniProt Q9H2G2); experiment: Inhibition of SLK in human PC3 cell lysates at 10 uM using desthiobiotin-tagged ATP probe AX9989 followed by trypsinization by LC/MS analysis; settings: PC-3
Chain of STE20-like serine/threonine-protein kinase (Homo sapiens) (Q9H2G2 whole entry, looked up): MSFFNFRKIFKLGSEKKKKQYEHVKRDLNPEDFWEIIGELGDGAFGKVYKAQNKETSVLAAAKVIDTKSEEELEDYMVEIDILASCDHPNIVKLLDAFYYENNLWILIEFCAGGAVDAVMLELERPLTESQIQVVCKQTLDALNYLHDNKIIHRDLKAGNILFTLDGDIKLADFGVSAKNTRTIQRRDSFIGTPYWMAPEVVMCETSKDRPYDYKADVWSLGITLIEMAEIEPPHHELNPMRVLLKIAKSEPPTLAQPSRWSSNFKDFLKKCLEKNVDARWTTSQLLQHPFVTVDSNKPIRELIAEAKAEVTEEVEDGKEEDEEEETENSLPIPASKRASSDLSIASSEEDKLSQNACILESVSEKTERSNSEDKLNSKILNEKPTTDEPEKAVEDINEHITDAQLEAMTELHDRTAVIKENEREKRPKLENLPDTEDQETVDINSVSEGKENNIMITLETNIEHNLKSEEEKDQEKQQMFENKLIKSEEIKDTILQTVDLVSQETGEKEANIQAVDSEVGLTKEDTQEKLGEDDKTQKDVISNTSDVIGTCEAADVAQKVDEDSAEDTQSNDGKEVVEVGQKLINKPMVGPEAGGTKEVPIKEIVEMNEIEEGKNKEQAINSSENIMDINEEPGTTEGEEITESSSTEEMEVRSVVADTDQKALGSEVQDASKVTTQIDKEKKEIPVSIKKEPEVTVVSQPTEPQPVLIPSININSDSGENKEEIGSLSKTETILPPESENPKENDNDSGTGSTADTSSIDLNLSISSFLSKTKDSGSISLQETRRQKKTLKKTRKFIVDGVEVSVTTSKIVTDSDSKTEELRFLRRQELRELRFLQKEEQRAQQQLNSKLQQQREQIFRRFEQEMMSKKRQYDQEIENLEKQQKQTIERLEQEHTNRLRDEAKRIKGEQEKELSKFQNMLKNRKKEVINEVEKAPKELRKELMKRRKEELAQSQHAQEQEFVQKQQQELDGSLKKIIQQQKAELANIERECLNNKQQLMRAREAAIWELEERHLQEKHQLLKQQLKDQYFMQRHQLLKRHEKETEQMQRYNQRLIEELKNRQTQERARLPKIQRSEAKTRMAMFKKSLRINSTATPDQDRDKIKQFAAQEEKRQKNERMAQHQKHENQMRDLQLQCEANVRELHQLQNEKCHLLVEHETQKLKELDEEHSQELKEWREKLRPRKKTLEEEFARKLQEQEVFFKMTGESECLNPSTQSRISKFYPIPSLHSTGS

[7] = biological target: Macrophage-stimulating protein receptor (Homo sapiens) (UniProt Q04912); experiment: Inhibition of RON in human PC3 cell lysates at 10 uM using desthiobiotin-tagged ATP probe AX9989 followed by trypsinization by LC/MS analysis; settings: PC-3
Chain of Macrophage-stimulating protein receptor (Homo sapiens) (Q04912 25-304 limits assumed): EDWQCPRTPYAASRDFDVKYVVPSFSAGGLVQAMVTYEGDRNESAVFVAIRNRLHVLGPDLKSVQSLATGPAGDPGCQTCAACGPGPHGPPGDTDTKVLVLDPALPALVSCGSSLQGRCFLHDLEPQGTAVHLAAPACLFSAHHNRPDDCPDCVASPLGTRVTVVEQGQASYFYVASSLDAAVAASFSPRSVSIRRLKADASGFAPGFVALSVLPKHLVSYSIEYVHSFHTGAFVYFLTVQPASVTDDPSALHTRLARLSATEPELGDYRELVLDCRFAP
Chain of Macrophage-stimulating protein receptor (Homo sapiens) (Q04912 310-1400 limits assumed): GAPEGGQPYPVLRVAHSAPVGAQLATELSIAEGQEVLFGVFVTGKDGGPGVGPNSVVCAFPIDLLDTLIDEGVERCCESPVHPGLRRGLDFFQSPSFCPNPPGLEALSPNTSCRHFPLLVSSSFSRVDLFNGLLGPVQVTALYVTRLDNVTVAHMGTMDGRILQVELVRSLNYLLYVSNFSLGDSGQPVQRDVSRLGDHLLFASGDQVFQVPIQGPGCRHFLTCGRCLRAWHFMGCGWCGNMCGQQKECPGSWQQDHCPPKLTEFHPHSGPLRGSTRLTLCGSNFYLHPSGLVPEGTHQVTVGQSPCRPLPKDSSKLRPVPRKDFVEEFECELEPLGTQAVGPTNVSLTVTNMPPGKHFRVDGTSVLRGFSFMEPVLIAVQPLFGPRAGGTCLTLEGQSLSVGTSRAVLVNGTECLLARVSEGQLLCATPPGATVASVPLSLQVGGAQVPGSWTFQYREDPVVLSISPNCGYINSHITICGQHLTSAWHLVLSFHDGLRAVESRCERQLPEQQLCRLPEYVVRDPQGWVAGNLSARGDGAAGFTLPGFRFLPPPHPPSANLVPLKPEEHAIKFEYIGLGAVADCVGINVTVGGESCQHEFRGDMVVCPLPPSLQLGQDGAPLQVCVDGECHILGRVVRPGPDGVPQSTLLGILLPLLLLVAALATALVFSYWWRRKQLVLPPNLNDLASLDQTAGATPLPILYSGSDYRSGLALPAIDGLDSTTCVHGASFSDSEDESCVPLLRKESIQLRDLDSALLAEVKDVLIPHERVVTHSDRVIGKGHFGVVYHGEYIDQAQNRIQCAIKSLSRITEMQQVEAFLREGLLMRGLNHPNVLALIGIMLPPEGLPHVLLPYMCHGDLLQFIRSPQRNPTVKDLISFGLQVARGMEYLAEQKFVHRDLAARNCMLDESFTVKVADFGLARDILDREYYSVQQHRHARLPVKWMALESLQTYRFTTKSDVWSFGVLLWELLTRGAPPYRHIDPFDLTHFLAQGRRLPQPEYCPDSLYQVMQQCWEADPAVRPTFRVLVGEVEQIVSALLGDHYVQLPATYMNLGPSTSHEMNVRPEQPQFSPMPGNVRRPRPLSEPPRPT

[8] = biological target: Casein kinase II subunit alpha' (Homo sapiens) (UniProt P19784); experiment: Inhibition of CK2alpha2 in human PC3 cell lysates at 10 uM using desthiobiotin-tagged ATP probe AX9989 followed by trypsinization by LC/MS analysis; settings: PC-3

SMILES | inhibition [1] | inhibition (PC-3) | inhibition [2] | inhibition [3] | inhibition [4] | inhibition [5] | inhibition [6] | inhibition [7] | inhibition [8]
CC(C)(NC(=O)c1ccc2nc(N[C@H]3CC[C@H](O)CC3)c3nccn3c2c1)c1ccccc1 | < 35% | < 35% | < 35% | < 35% | < 35% | < 35% | < 35% | < 35% | < 35%
O=C(NC1(Cc2ccc(F)cc2)CC1)c1ccc2nc(N[C@H]3CC[C@H](O)CC3)c3nccn3c2c1 | < 35% | < 35% | < 35% | < 35% | < 35% | < 35% | < 35% | < 35% | < 35%
O=C(N[C@H](CO)c1ccccc1)c1ccc2nc(N[C@H]3CC[C@H](O)CC3)c3nccn3c2c1 | < 35% | < 35% | < 35% | < 35% | 56.4% | < 35% | < 35% | < 35% | < 35%
C[C@H](NC(=O)c1ccc2nc(N[C@H]3CC[C@H](O)CC3)c3nccn3c2c1)c1ccccc1 | < 35% | < 35% | < 35% | < 35% | < 35% | < 35% | < 35% | < 35% | < 35%
O=C(NC1(c2ccc(F)cc2)CC1)c1ccc2nc(N[C@H]3CC[C@H](O)CC3)c3nccn3c2c1 | < 35% | < 35% | < 35% | < 35% | < 35% | < 35% | < 35% | < 35% | < 35%
C[C@@H](NC(=O)c1ccc2nc(N[C@H]3CC[C@H](O)CC3)c3nccn3c2c1)c1ccccc1 | < 35% | < 35% | < 35% | < 35% | 54% | < 35% | < 35% | < 35% | < 35%
CC[C@@H](NC(=O)c1ccc2nc(N[C@H]3CC[C@H](O)CC3)c3nccn3c2c1)c1ccccc1 | < 35% | < 35% | < 35% | < 35% | 38.5% | < 35% | < 35% | < 35% | < 35%
CCC[C@@H](NC(=O)c1ccc2nc(N[C@H]3CC[C@H](O)CC3)c3nccn3c2c1)c1ccccc1 | < 35% | < 35% | < 35% | < 35% | < 35% | < 35% | < 35% | < 35% | < 35%
O=C(NC1(c2ccccc2)CCC1)c1ccc2nc(N[C@H]3CC[C@H](O)CC3)c3nccn3c2c1 | < 35% | < 35% | < 35% | < 35% | < 35% | < 35% | < 35% | < 35% | < 35%
O=C(O)c1ccc2nc(N[C@H]3CC[C@H](O)CC3)c3nccn3c2c1 | < 35% | < 35% | < 35% | < 35% | 41.7% | < 35% | < 35% | < 35% | 40.6%
NC(=O)c1ccc2nc(N[C@H]3CC[C@H](O)CC3)c3nccn3c2c1 | < 35% | < 35% | < 35% | < 35% | < 35% | < 35% | < 35% | < 35% | < 35%
O=C(NC1(c2ccccc2)CC1)c1ccc2nc(N[C@H]3CC[C@H](O)CC3)c3nccn3c2c1 | < 35% | < 35% | < 35% | < 35% | < 35% | < 35% | < 35% | < 35% | < 35%
